Values after ≈ are worked out from the molar mass of the structure shown.
Tested on: HCT-116
Experiment: Cytotoxicity against human HCT116 cells after 72 hrs by MTS assay
Type: functional, cell-based
Conditions: HCT-116, 72 h

Row | SMILES | IC50 [mg/L]
1 | CCC(CC[C@@H](C)[C@H]1CC[C@H]2[C@@H]3CC=C4C(=O)[C@](O)(C(=O)OC)C[C@]4(C)[C@H]3CC[C@]12C)C(C)C (mixture of isomers) [PHORBASTERONE D] | 1
2 | CCC(/C=C/[C@@H](C)[C@H]1CC[C@H]2[C@@H]3CC=C4C(=O)[C@](O)(C(=O)OC)C[C@]4(C)[C@H]3CC[C@]12C)C(C)C (mixture of isomers) [PHORBASTERONE C] | 1
3 | COC(=O)[C@]1(O)C[C@@]2(C)C(=CC[C@H]3[C@@H]4CC[C@H]([C@H](C)/C=C/C(C)C(C)C)[C@@]4(C)CC[C@@H]32)C1=O (some centres undefined) [PHORBASTERONE A] | 1 (≈ 2.19 µM)
4 | COC(=O)[C@]1(O)C[C@@]2(C)C(=CC[C@H]3[C@@H]4CC[C@H]([C@H](C)CCCC(C)C)[C@@]4(C)CC[C@@H]32)C1=O [PHORBASTERONE B] | 1 (≈ 2.25 µM)
